Here are results for 17 compounds from patent US10219516B2, “Molecules having pesticidal utility, and intermediates, compositions, and processes, related thereto” (priority 2015, dated 2019).

Where two headings read alike, the source gives them in different places.

What all share (type): in vivo
Assay [1] relates to Beet Armyworm (Spodoptera exigua, LAPHEG). In words: Bioassay on Beet Armyworm (BAW), 128-well diet tray assay. Summed up:
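Diet tray, 8 wells/compound; 50 μg/cm^2 applied to diet surface (90:10 acetone-water), dried. 1–5 L2 larvae/well; 25° C., 14:10 L:D, 5–7 d. Read-out: % mortality, mean of 8 wells.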

Assay [2] relates to Cabbage Looper (Trichoplusia ni, TRIPNI). Kind of assay: Bioassay on Cabbage Looper (CL), 128-well diet tray assay. As to conditions: Trichoplusia ni. Summed up:
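Mortality of second instar larvae exposed to diet coated with 50 μg/cm^2 compound (acetone-water 90:10 vehicle, dried); 25° C., 5–7 days.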

Assay [3] has as its system Green Peach Aphid (Myzus persicae, MYZUPE). Kind of assay: Bioassay on Green Peach Aphid (GPA), foliar spray on infested cabbage seedlings. The conditions noted are these: 72 h. A digest of the protocol:
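Cabbage seedlings (2-3 true leaves) infested with 20-50 wingless adult and nymph aphids one day before treatment; sprayed to runoff at 200 ppm in 0.025% Tween 20 water with 20% acetone/methanol, four pots per treatment. Held three days at about 25° C; live aphids counted, % control by Abbott's correction versus solvent check.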

For assay [4], the system named is Yellow Fever Mosquito (Aedes aegypti, AEDSAE). Kind of assay: Bioassay on Yellow Fever Mosquito (YFM), 96-well plate larval assay. The conditions noted are these: for YFM (Biological Results, rating): Species YFM (Yellow Fever Mosquito); for YFM rating: Yellow Fever Mosquito, 96-well plate larval assay. Summed up:
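Each well was scored for mortality after 3 days at room temperature under a non-evaporative lid. Test molecules came from DMSO masters (4000 ppm stock) diluted with water/acetone 90:10 and dispensed into six replicate plates, which were then infested with roughly 1-day-old larvae in liver-powder water.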

[5] abbreviates: Species BAW (Beet Armyworm), read-out: BAW (Biological Results, rating).
The mark [6] stands for this setting: Species CL (Cabbage Looper), read-out: CL (Biological Results, rating).
Setting [7] is: foliar, Species GPA (Green Peach Aphid), read-out: GPA (Biological Results, rating).
Setting [8] is: Beet Armyworm, 128-well diet tray assay, read-out: BAW rating.
Where [9] appears, read: Cabbage Looper, 128-well diet tray assay, read-out: CL rating.
The mark [10] stands for this setting: Green Peach Aphid, foliar spray on cabbage seedlings, read-out: GPA rating.

For the compound `CN(C(=O)c1cc(NC(=O)[C@H]2[C@H](c3cc(Cl)c(Cl)c(Cl)c3)C2(Cl)Cl)ccc1Cl)c1ccc(F)cc1` (relative stereo) [F52, trans-2-Chloro-5-(2,2-dichloro-3-(3,4,5-trichlorophenyl)cyclopropane-1-carboxamido)-N-(4-fluorophenyl)-N-methylbenzamide], the pest or weed control at 50 µg/cm2 in assay [1] (setting [5]) and in assay [2] (setting [6]) was 50 to 100% throughout. The pest or weed control at 200 µg/mL in assay [3] (setting [7]) fell in the range of 80 to 100%. In addition, in assay [4], the “YFM (Biological Results, rating)” value is “A (80-100)”.
Regarding `CN(C(=O)c1cc(NC(=O)[C@H]2[C@H](c3ccc(Cl)c(F)c3)C2(Cl)Cl)ccc1Cl)c1ccc(F)cc1` (relative stereo) [PF35, trans-2-Chloro-5-(2,2-dichloro-3-(4-chloro-3-fluorophenyl)cyclopropane-1-carboxamido)-N-(4-fluorophenyl)-N-methylbenzamide], the pest or weed control at 50 µg/cm2 in assay [1] (setting [8]) and in assay [2] (setting [9]) was 50 to 100% each time. In addition, the pest or weed control at 200 µg/mL in assay [3] (setting [10]) was in the range of 80 to 100%. Besides, in assay [4], the YFM rating result is recorded as “A (80-100)”.
With `Cc1ccc(NC(=O)[C@H]2[C@H](c3cc(Cl)cc(Cl)c3)C2(Cl)Cl)cc1C(=O)Nc1ccc(F)cc1` (relative stereo) [F10, trans-5-(2,2-Dichloro-3-(3,5-dichlorophenyl)cyclopropane-1-carboxamido)-N-(4-fluorophenyl)-2-methylbenzamide], the pest or weed control at 50 µg/cm2 in assay [1] (setting [5]) and in assay [2] (setting [6]) was 50 to 100% in each case. For the same compound, in assay [3] (setting [7]), the pest or weed control at 200 µg/mL lay in the range of 0 to 80%. Besides, the “YFM (Biological Results, rating)” value in assay [4] is on record as “A (80-100)”.
As to `O=C(Nc1ccc(F)cc1F)c1cc(NC(=O)[C@H]2[C@H](c3ccc(F)c(Cl)c3)C2(Cl)Cl)ccc1Cl` [F533], the pest or weed control at 50 µg/cm2 in assay [1] (setting [8]) and in assay [2] (setting [9]) was 50 to 100% throughout. Besides, in assay [3] (setting [10]), the pest or weed control at 200 µg/mL lay in the range of 80 to 100%. Further, in assay [4], the YFM rating entry is “A (80-100)”.
`CCc1cccc(C)c1NC(=O)c1cc(NC(=O)[C@H]2[C@H](c3cc(Cl)cc(Cl)c3)C2(Cl)Cl)ccc1Cl` (relative stereo) [F42, trans-2-Chloro-5-(2,2-dichloro-3-(3,5-dichlorophenyl)cyclopropane-1-carboxamido)-N-(2-ethyl-6-methylphenyl)benzamide]: the pest or weed control at 50 µg/cm2 in assay [1] (setting [5]) and in assay [2] (setting [6]) was 50 to 100% in each case. For the same compound, the pest or weed control at 200 µg/mL in assay [3] (setting [7]) lay within 0 to 80%. Further, in assay [4], the “YFM (Biological Results, rating)” value was “A (80-100)”.
For the compound `N#Cc1cc(F)ccc1NC(=O)c1cc(NC(=O)[C@H]2[C@H](c3cc(Cl)cc(Cl)c3)C2(Cl)Cl)ccc1Cl` (relative stereo) [PF67, trans-2-Chloro-N-(2-cyano-4-fluorophenyl)-5-(2,2-dichloro-3-(3,5-dichlorophenyl)cyclopropane-1-carboxamido)benzamide], the pest or weed control at 50 µg/cm2 in assay [1] (setting [8]) and in assay [2] (setting [9]) was 50 to 100% each time. The pest or weed control at 200 µg/mL in assay [3] (setting [10]) lay within 80 to 100%. The YFM rating result in assay [4] was “B (More than 0-Less than 80)”.
Consider `O=C(Nc1ccc[n+]([O-])c1)c1cc(NC(=O)[C@H]2[C@H](c3cc(Cl)cc(Cl)c3)C2(Cl)Cl)ccc1Cl` (relative stereo) [F139, trans-3-(2-chloro-5-(2,2-dichloro-3-(3,5-dichlorophenyl)cyclopropane-1-carboxamido)benzamido)pyridine 1-oxide], for which the pest or weed control at 50 µg/cm2 in assay [1] (setting [5]) and in assay [2] (setting [6]) was 50 to 100% in each case. In addition, the pest or weed control at 200 µg/mL in assay [3] (setting [7]) was 0 to 80%. Further, in assay [4], the “YFM (Biological Results, rating)” value is given as “A (80-100)”.
In the case of `O=C(Nc1ccsc1)c1cc(NC(=O)[C@H]2[C@H](c3cc(Cl)cc(Cl)c3)C2(Cl)Cl)ccc1Cl` (relative stereo) [PF152, trans-2-Chloro-5-(2,2-dichloro-3-(3,5-dichlorophenyl)cyclopropane-1-carboxamido)-N-(thiophen-3-yl)benzamide], the pest or weed control at 50 µg/cm2 in assay [1] (setting [8]) and in assay [2] (setting [9]) was 50 to 100% each time. The pest or weed control at 200 µg/mL in assay [3] (setting [10]) was in the range of 0 to 80%. Besides, the YFM rating entry in assay [4] is on record as “B (More than 0-Less than 80)”.
For `O=C(Nc1cccnc1)c1cc(NC(=O)[C@H]2[C@H](c3cc(Cl)cc(Cl)c3)C2(Cl)Cl)ccc1Cl` (relative stereo) [F27, trans-2-Chloro-5-(2,2-dichloro-3-(3,5-dichlorophenyl)cyclopropane-1-carboxamido)-N-(pyridin-3-yl)benzamide], the pest or weed control at 50 µg/cm2 in assay [1] (setting [5]) and in assay [2] (setting [6]) was 50 to 100% throughout. Further, in assay [3] (setting [7]), the pest or weed control at 200 µg/mL lay within 0 to 80%. Further, the “YFM (Biological Results, rating)” value in assay [4] is listed as “A (80-100)”.
Turning to `O=C(Nc1c(F)cccc1F)c1cc(NC(=O)[C@H]2[C@H](c3ccc(Cl)c(F)c3)C2(Cl)Cl)ccc1Cl` (relative stereo) [F163, trans-2-Chloro-5-(2,2-dichloro-3-(4-chloro-3-fluorophenyl)cyclopropane-1-carboxamido)-N-(2,6-difluorophenyl)benzamide], the pest or weed control at 50 µg/cm2 in assay [1] (setting [5]) and in assay [2] (setting [6]) was 50 to 100% throughout. The pest or weed control at 200 µg/mL in assay [3] (setting [7]) lay in the range of 0 to 80%. The “YFM (Biological Results, rating)” value in assay [4] is “B (More than 0-Less than 80)”.
Regarding `COCC(=O)N(C)c1ccc(NC(=O)c2cc(NC(=O)[C@H]3[C@H](c4cc(Cl)cc(Cl)c4)C3(Cl)Cl)ccc2Cl)cc1` (relative stereo) [PF31, trans-2-Chloro-5-(2,2-dichloro-3-(3,5-dichlorophenyl)cyclopropane-1-carboxamido)-N-(4-(2-methoxy-N-methylacetamido)phenyl)benzamide], the pest or weed control at 50 µg/cm2 in assay [1] (setting [8]) and in assay [2] (setting [9]) was 50 to 100% in each case. In addition, the pest or weed control at 200 µg/mL in assay [3] (setting [10]) was in the range of 0 to 80%. Moreover, the YFM rating entry in assay [4] is “B (More than 0-Less than 80)”.
For the compound `COc1c(NC(=O)[C@H]2[C@H](c3cc(Cl)cc(Cl)c3)C2(Cl)Cl)cccc1C(=O)Nc1ccc(F)cc1` (relative stereo) [F30, trans-3-(2,2-Dichloro-3-(3,5-dichlorophenyl)cyclopropane-1-carboxamido)-N-(4-fluorophenyl)-2-methoxybenzamide], the pest or weed control at 50 µg/cm2 in assay [1] (setting [5]) and in assay [2] (setting [6]) was 50 to 100% throughout. Besides, the pest or weed control at 200 µg/mL in assay [3] (setting [7]) lay in the range of 0 to 80%. The “YFM (Biological Results, rating)” value in assay [4] is “A (80-100)”.
As to `O=C(Nc1ccc(F)cc1F)c1cc(NC(=O)[C@H]2[C@H](c3cc(F)cc(Br)c3)C2(Cl)Cl)ccc1Cl` (relative stereo) [F423, 5-(trans)-(3-(3-Bromo-5-fluorophenyl)-2,2-dichlorocyclopropane-1-carboxamido)-2-chloro-N-(2,4-difluorophenyl)benzamide], the pest or weed control at 50 µg/cm2 in assay [1] (setting [8]) and in assay [2] (setting [9]) was 50 to 100% in each case. Besides, the pest or weed control at 200 µg/mL in assay [3] (setting [10]) was 80 to 100%. The YFM rating entry in assay [4] is given as “A (80-100)”.
Regarding `CNC(=O)c1ccc(NC(=O)c2cc(NC(=O)[C@H]3[C@H](c4cc(Cl)cc(Cl)c4)C3(Cl)Cl)ccc2Cl)cn1` (relative stereo) [F77, trans-5-(2-Chloro-5-(2,2-dichloro-3-(3,5-dichlorophenyl)cyclopropane-1-carboxamido)benzamido)-N-methylpicolinamide], the pest or weed control at 50 µg/cm2 in assay [1] (setting [5]) and in assay [2] (setting [6]) was 50 to 100% each time. For the same compound, the pest or weed control at 200 µg/mL in assay [3] (setting [7]) was 80 to 100%. Moreover, the “YFM (Biological Results, rating)” value in assay [4] is given as “A (80-100)”.
As for `CN(C(=O)c1cc(NC(=O)[C@H]2[C@H](c3cc(Cl)cc(Cl)c3)C2(Cl)Cl)ccc1Cl)c1ccccc1F` (relative stereo) [F35, trans-2-Chloro-5-(2,2-dichloro-3-(3,5-dichlorophenyl)cyclopropane-1-carboxamido)-N-(2-fluorophenyl)-N-methylbenzamide], the pest or weed control at 50 µg/cm2 in assay [1] (setting [5]) and in assay [2] (setting [6]) was 50 to 100% each time. The pest or weed control at 200 µg/mL in assay [3] (setting [7]) is 80 to 100%. Moreover, the “YFM (Biological Results, rating)” value in assay [4] is listed as “A (80-100)”.
As to `O=C(Nc1cccc([N+](=O)[O-])c1)c1cc(NC(=O)[C@H]2[C@H](c3cc(Cl)cc(Cl)c3)C2(Cl)Cl)ccc1Cl` (relative stereo) [PF73, trans-2-Chloro-5-(2,2-dichloro-3-(3,5-dichlorophenyl)cyclopropane-1-carboxamido)-N-(3-nitrophenyl)benzamide], the pest or weed control at 50 µg/cm2 in assay [1] (setting [8]) and in assay [2] (setting [9]) was 50 to 100% each time. Besides, in assay [3] (setting [10]), the pest or weed control at 200 µg/mL was in the range of 80 to 100%. Moreover, the YFM rating result in assay [4] was “B (More than 0-Less than 80)”.
For the compound `CN(C(=O)c1cc(NC(=O)[C@H]2[C@H](c3ccc(Cl)c(Cl)c3)C2(Cl)Cl)ccc1Cl)c1ccc(F)cc1` (relative stereo) [F53, trans-2-Chloro-5-(2,2-dichloro-3-(3,4-dichlorophenyl)cyclopropane-1-carboxamido)-N-(4-fluorophenyl)-N-methylbenzamide], the pest or weed control at 50 µg/cm2 in assay [1] (setting [5]) and in assay [2] (setting [6]) was 50 to 100% each time. Moreover, the pest or weed control at 200 µg/mL in assay [3] (setting [7]) was 80 to 100%. Also, the “YFM (Biological Results, rating)” value in assay [4] is reported as “A (80-100)”.
